# Tested on: MaGSTe3
# Test: GSH conjugation, absorbance at […] nm, Michaelis-Menten fit
# Format: biochemical, Monochamus alternatus
# Details: co-substrate GSH (concentration not given); 100 mM PBS; CDNB varied, printed range 0–400 mM
structure (smiles),measurement,value
"O=[N+]([O-])c1ccc(Cl)c([N+](=O)[O-])c1 [1-chloro-2,4-dinitrobenzene]",Km,1240 ± 210 µM

# Reference: publication PMC10743883, “Identification and Functional Analysis of an Epsilon Class Glutathione S-Transferase Gene Associated with α-Pinene Adaptation in Monochamus alternatus” (International Journal of Molecular Sciences, 2023)
